Experimental data: patent US5840711A, “Compositions containing lithium inorganic salts and anti-viral drugs and method of treating viral infections such as acquired immunodeficiency syndrome” (priority 1997, dated 1998)
Entries after “also recorded” stand apart in the source; their conditions may differ. Where two headings read alike, the source gives them in different places.

How the values were obtained:
[1] = system: BFU-E of Normal Bone Marrow
Protocol: (§1) The laboratory studies were performed in vitro to evaluate whether either drugs, i.e., with or without their lithium formulation when combined with either normal bone marrow cells or bone marrow cells taken from MAIDS animals would express: 1) differences in their toxicity profile when measured in culture and 2) differences comparing the responses using normal bone marrow cells versus bone marrow cells from MAIDS animals, in other words, comparing viral-infected cells with non-viral infected cells.
(§2) This table is interpreted as follows.

[2] = system: CFU-GM of Normal Bone Marrow
Protocol: as §1, §2

[3] = system: HIV-positive patient with severe Factor VIII deficiency; conditions: cited from earlier work
[4] = system: CFU-GM (Myeloid) of normal bone marrow cells; test: AZT bone marrow toxicity in vitro, CFU-GM colony formation; assay type: cell-based
Description: (§3) This is a standard practice.

AIDS patients = conditions: clinical use; listed as zidovudine (AZT); cited from earlier work
[5] = system: BFU-E (Erythroid) of normal bone marrow cells; test: AZT bone marrow toxicity in vitro, BFU-E colony formation; assay type: cell-based
Description: as §3

HIV-infected patients = conditions: cited from earlier work
[6] = system: CFU-Meg (Megakaryocyte) of normal bone marrow cells; test: AZT bone marrow toxicity in vitro, CFU-Meg colony formation; assay type: cell-based
Description: as §3

LP-BM5 MuLV [7] = conditions: cited from earlier work
LP-BM5 MuLV [8] = system: LP-BM5 MuLV
Description: Female C57BL6 mice (8-10 weeks of age) were purchased from Harlan, Indianapolis, Ind., USA. All animals were quarantined for a minimum of 1-week before experimental use. Animals were housed in plastic cages and fed Purina lab chow and water ad libitum.
LP-BM5 MuLV isolate used in these studies was originally derived from a bone marrow stromal cell line (SC-1) harvested from animals infected with mink cell MuLV (Morse et al., 1992) and is routinely maintained in the laboratory. LP-BM5 MuLV is a retrovirus mixture containing replication-competent helper B-trophic ecotropic mink cell focus forming (MCF) virus and an etiologic 4.9-kb replication defective genome termed EM5-def, susceptibility to which depends on the presence of the FV-1b genotype permissive for B-trophic virus replication (Morse et al., 1992). Therefore, the viral pool permissive for B-trophic virus replication (Morse et al., 1992) consisted of a mixture of B-tropic ecotropic and B-tropic mink cell focus-inducing murine immunodeficiency virus (MuLV). The titers of ecotropic and MCF MuLV were determined by XC plaque assay in SC-1 cells or by SC-1 UV-mink assay. […] To minimize exogenous infection, mice were maintained in microisolator cages and handled in accordance with the NIH Guide for the Care and Use of Laboratory Animals (NIH No. 85-23, 1985). Cages, bedding and food were autoclaved prior to use and all cages and animal handling or monitoring were performed in laminar air flow hoods. Ventilation and air flow in the animal facility was set to 12 changes/h. Room temperatures were regulated at 72°±2° F. and the rooms were on automatic 12-h light/dark cycles. One hundred and twenty mice were infected by i.p. injection of 0.25 ml of LP-BM5 MuLV virus-stock (10 μg of total protein) harvested from the SC-1 cell line following 3-day in vitro culture. The development of MAIDS induced by virus was monitored by physical findings (Morse et al., 1992). […] Increased systemic levels of IgM were used to monitor the development of LP-BM5 MuLV-induced disease.
In order to evaluate the ability of lithium to influence hematopoiesis in immunodeficient virus-infected animals, the following studies were performed. One hundred and twenty mice infected with LP-BM5 were divided into two groups, i.e., 60 virus-infected mice served as virus controls and the other group was administered lithium carbonate (Li2 CO3, ultra-pure; Alpha Therapeutics, Danville, Mass. USA) placed in the drinking water at a concentration of 1 mM as previously described from this laboratory (Gallicchio et al., 1993). Lithium treatment was initiated 7 days prior to virus infection. […] Lithium was initiated 7 days before virus infection and was continued for the duration of the study. Plasma lithium levels from animals bled by cardiac puncture on the days of examination were monitored by use of flame photometry (Model no. 943, IL Instruments, Lexington, Mass. USA). Virus-infected controls and virus-infected mice treated with lithium were serially sacrificed 1, 5, 9, 13, 17 and 21 weeks following virus inoculation for determination of lithium treatment on hematopoiesis following administration in LP-BMS5 MuLV infected animals.

normal bone marrow cells [9] = conditions: in vitro with normal bone marrow cells (previous work; b10 also in vivo mice); cited from earlier work
herpes simplex virus = conditions: in vitro, cited from earlier work
normal bone marrow cells [10] = test: AZT toxicity on normal bone marrow cells in vitro, overall; conditions: normal bone marrow cells with AZT
Protocol: These studies were performed in vitro with normal bone marrow cells incubated in the presence of AZT and Li-GLA.

[11] = week 3, Lithium Control (1 mM), listed as lithium

Protocol for Normal Mice: C57BL6 were administered dose-escalation AZT (1.0 mg/ml and 2.5 mg/ml) for a period of 4-weeks. […] Animals were analyzed on a weekly basis for their peripheral blood indices.
C57BL6 female mice were purchased from Harlan, Indianapolis, Ind., USA used at 6-12 weeks of age, and housed 5 to a cage. […] Mice received Purina Autoclavable Chow and water ad libitum until initiation of the study. Thereafter, water containing lithium was supplied to the animals and daily water consumption was monitored.
In order to evaluate the ability of lithium to influence the hematopoietic toxicity associated with AZT in mice that had already been exposed to AZT, the following protocol was established. […] AZT and lithium were added to the animal drinking water Groups II, III, V and VI began their AZT all at the same time. Groups V and VI, at the beginning of week 5, received lithium that was added to their water supply. All treated groups then continued to receive AZT for an additional 4 weeks, equaling a total treatment-study period lasting 8-weeks in duration.
Animals were serially sacrificed, at least three to a group, on a weekly basis, for eight consecutive weeks. Animals were bled from the tail vein (600 μl) for assessment of peripheral blood indices; i.e., packed red cell volume, white blood cell, and platelet counts. In addition, at least one femur per animal was obtained and the bone marrow cellularity was calculated using standard laboratory procedures.
Mean±SE for values comparing control with experimental, utilizing duplicate studies were determined and analyzed using the two-sample ranks test of Wilcoxam-White (P<0.05) to determine significance.

2',2'-Dideoxyinosine [ddI]
CC50 [1]: 1 µM | CC50 [2]: 100 µM

2,3'-Dideoxycytosine [ddC]
CC50 [1]: 0.6 µM | CC50 [2]: 10 µM

Cc1cn([C@H]2C[C@H](N=[N+]=[N-])[C@@H](CO)O2)c(=O)[nH]c1=O [AZT, 3'-azido-3'-deoxythymidine]
Toxicity leading to discontinuation ([3]; after 6 months): thrombocytopenia, neutropenia, and anemia | CFU-GM (Myeloid) colonies ([4]; AZT 0.01 μM): 53.5 ± 3 | CFU-GM (Myeloid) colonies ([4]; AZT 0.1 μM): 39.5 ± 3 | CFU-GM (Myeloid) colonies ([4]; AZT 1.0 μM): 28.5 ± 4 | CFU-GM (Myeloid) colonies ([4]; AZT 10.0 μM): 14.5 ± 3 | Toxicity of AZT (AIDS patients): myelosuppression and bone marrow toxicity; also recorded: the development of virus resistance and bone marrow suppression | BFU-E (Erythroid) colonies ([5]; AZT 0.01 μM): 43.5 ± 5 | BFU-E (Erythroid) colonies ([5]; AZT 0.1 μM): 37.5 ± 3 | BFU-E (Erythroid) colonies ([5]; AZT 1.0 μM): 21.5 ± 5 | BFU-E (Erythroid) colonies ([5]; AZT 10.0 μM): 14.5 ± 2 | Tolerated AZT dose with lithium (HIV-infected patients): up to 1,000 mg | Tolerated zidovudine dose with lithium (HIV-infected patients; without observable signs of toxicity (Herbert et al., 1988)): up to 1000 mg/day | Lymphocytes and monocytes (Normal Mice; mouse, in vivo): Lower, but less significant, levels | CFU-Meg (Megakaryocyte) colonies ([6]; AZT 0.01 μM): 16.0 ± 3 | CFU-Meg (Megakaryocyte) colonies ([6]; AZT 0.1 μM): 10.5 ± 3 | CFU-Meg (Megakaryocyte) colonies ([6]; AZT 1.0 μM): 6.5 ± 3 | CFU-Meg (Megakaryocyte) colonies ([6]; AZT 10.0 μM): 2.5 ± 2

O=C([O-])[O-].[Li+].[Li+] [Lithium, lithium carbonate]
Absolute neutrophil and platelet counts ([3]; within 3 days, 300 mg t.i.d. with methylprednisolone): a remarkable rise | Splenomegaly and hypergammaglobulinemia (IgM) (LP-BM5 MuLV [7]; LP-BM5 MuLV animals (Gallicchio et al., 1994)): reduction in the splenomegaly and hypergammaglobulinemia | Toxicity following dose-escalation of AZT (LP-BM5 MuLV [7]; MAIDS model in vivo (Gallicchio et al., 1995)): reduced the immunochematopoietic toxicity | Hematopoietic progenitor cells from bone marrow or spleen (LP-BM5 MuLV [7]; in vivo, with zidovudine (literature)): effectively increased the number of hematopoietic progenitor cells | Immune function status (LP-BM5 MuLV [8]; murine model (MAIDS)): significantly improves immune function status | Hematopoiesis in MAIDS mice (LP-BM5 MuLV [8]; versus animals not receiving lithium): significant hematopoiesis | Bone marrow BFU-E (LP-BM5 MuLV [8]; versus viral controls): increased BFU-E that peaked on week 9 | Bone marrow CFU-GM (LP-BM5 MuLV [8]; versus viral controls): increased CFU-GM compared to viral controls that peaked on week 9 | Bone marrow CFU-Meg (LP-BM5 MuLV [8]; versus viral controls): increased, although not until week 17 of examination | Splenic BFU-E (LP-BM5 MuLV [8]; versus viral controls): increased at all time points examined | Splenic CFU-GM (LP-BM5 MuLV [8]; versus viral controls): significantly increased at all time points compared to viral controls | Splenic CFU-Meg (LP-BM5 MuLV [8]; versus viral controls): increased significantly | Absolute neutrophils (LP-BM5 MuLV [8]; versus virus control group, FIG. 2a): increased | Absolute lymphocytes (LP-BM5 MuLV [8]; versus virus control group, FIG. 2b): increased | Effect on packed red cell volume (hematocrit) (LP-BM5 MuLV [8]; versus virus-control group, FIG. 1a): decreased the reduction | Effect on white blood cell count (LP-BM5 MuLV [8]; versus virus-control group, FIG. 1b): decreased the reduction | Effect on platelets (LP-BM5 MuLV [8]; versus virus-control group, FIG. 1c): decreased the reduction | Signs of lithium toxicity, i.e., tremor (LP-BM5 MuLV [8]; virus-infected mice receiving lithium): no demonstrable signs of lithium toxicity | Myelosuppression and marrow toxicity of AZT (normal bone marrow cells [9]): reduced the myelosuppression and marrow toxicity of AZT significantly | Patients responding with neutrophilia (HIV-infected patients; 5 AIDS patients (report)): 3 of 5 patients | Patients responding with neutrophilia (HIV-infected patients; AIDS patients (Worthington 1990)): one of three | Patients tolerating higher doses of AZT (up to 1,000 mg) (HIV-infected patients): 3 of the 5 patients | Patients with significant hematopoiesis (HIV-infected patients): Three of the five patients | Patients responding with neutrophilia (HIV-infected patients; lithium at least 4 weeks, no AZT (Parenti et al., 1988)): 6 of 7 | Lithium toxicity (HIV-infected patients; no AZT (Parenti et al., 1988)): further lithium usage was limited due to the presence of lithium toxicity | Patients demonstrating significant hematopoiesis (HIV-infected patients; with zidovudine (Herbert et al., 1988)): Three of the 5 | Reduction in eosinophils (Normal Mice; AZT with lithium treatment): prevented this reduction in eosinophils observed with AZT | Thrombocytopenia (Normal Mice; following lithium, each week examined, both AZT groups): no thrombocytopenia | Eosinophils (Normal Mice; week 1, Lithium Control (1 mM)): 100 Percent Control | Hematocrit (Normal Mice; week 1, Lithium Control (1 mM)): 98 Percent Control | Neutrophils (Normal Mice; week 1, Lithium Control (1 mM)): 100 Percent Control | Platelets (Normal Mice; week 1, Lithium Control (1 mM)): 100 Percent Control | Eosinophils (Normal Mice; week 2, Lithium Control (1 mM)): 100 Percent Control | Hematocrit (Normal Mice; week 2, Lithium Control (1 mM)): 82 Percent Control | Neutrophils (Normal Mice; week 2, Lithium Control (1 mM)): 54 Percent Control | Platelets (Normal Mice; week 2, Lithium Control (1 mM)): 93 Percent Control | Eosinophils (Normal Mice; week 3, Lithium Control (1 mM)): 100 Percent Control | Hematocrit (Normal Mice; week 3, Lithium Control (1 mM)): 101 Percent Control | Neutrophils (Normal Mice; week 3, Lithium Control (1 mM)): 65 Percent Control | Platelets (Normal Mice; week 3, Lithium Control (1 mM)): 93 Percent Control | Neutrophils (Normal Mice; [11]): 120 Percent Control | Platelets (Normal Mice; [11]): 116 Percent Control | Eosinophils (Normal Mice; week 4, Lithium Control (1 mM)): 100 Percent Control | Hematocrit (Normal Mice; week 4, Lithium Control (1 mM)): 100 Percent Control | Neutrophils (Normal Mice; week 4, Lithium Control (1 mM)): 61 Percent Control | Platelets (Normal Mice; week 4, Lithium Control (1 mM)): 74 Percent Control | Eosinophils (Normal Mice; week 5, Lithium Control (1 mM)): 100 Percent Control | Hematocrit (Normal Mice; week 5, Lithium Control (1 mM)): 98 Percent Control | Neutrophils (Normal Mice; week 5, Lithium Control (1 mM)): 54 Percent Control | Platelets (Normal Mice; week 5, Lithium Control (1 mM)): 69 Percent Control | Eosinophils (Normal Mice; week 6, Lithium Control (1 mM)): 146 Percent Control | Hematocrit (Normal Mice; week 6, Lithium Control (1 mM)): 94 Percent Control | Neutrophils (Normal Mice; week 6, Lithium Control (1 mM)): 98 Percent Control | Platelets (Normal Mice; week 6, Lithium Control (1 mM)): 69 Percent Control | Eosinophils (Normal Mice; week 7, Lithium Control (1 mM)): 100 Percent Control | Hematocrit (Normal Mice; week 7, Lithium Control (1 mM)): 98 Percent Control | Neutrophils (Normal Mice; week 7, Lithium Control (1 mM)): 120 Percent Control | Platelets (Normal Mice; week 7, Lithium Control (1 mM)): 116 Percent Control | Eosinophils (Normal Mice; week 8 (+ lithium from week 5 in combination group), AZT 1.0 mg/ml): 110 Percent Control | Eosinophils (Normal Mice; week 8 (+ lithium from week 5 in combination group), AZT 2.5 mg/ml (AZT column headed 2 mg/ml)): 164 Percent Control | Hematocrit toxicity (Normal Mice; week 8, lithium versus AZT controls): the same level of toxicity as the AZT controls | Eosinophils (Normal Mice; week 8, Lithium Control (1 mM)): 107 Percent Control | Hematocrit (Normal Mice; week 8, Lithium Control (1 mM)): 88 Percent Control | Neutrophils (Normal Mice; week 8, Lithium Control (1 mM)): 90 Percent Control | Platelets (Normal Mice; week 8, Lithium Control (1 mM)): 79 Percent Control | DNA polymerase activity (herpes simplex virus; HSV): inhibition of DNA polymerase activity

[Cl-].[Li+] [lithium chloride]
Effect on AZT toxicity / colony formation (normal bone marrow cells [10]): there is a reduction in AZT toxicity; however, the values never reach the level of the normal control; also recorded: reduced AZT toxicity but was not effective in increasing cell growth and colony formation | Myelosuppression and marrow toxicity of AZT (normal bone marrow cells [9]): reduced the myelosuppression and marrow toxicity of AZT significantly | Concentration inhibiting herpes simplex virus replication (herpes simplex virus): 5 to 30 mM
